The values below come from PubChem BioAssay (NCI).

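Values below derive from 48-hour exposures of cells grown in 96-well plates, with endpoints linearly interpolated between the two concentrations bracketing the appropriate inhibition level. Abbreviation: GI50, concentration required for 50% inhibition of growth. TGI marks complete inhibition of growth.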

Common to all, as to assay: NCI-60 cell line screen, 48 h
For test [1], the system named is NCI-H23 lung.
In test [2] the test system is HCT-116 colon.
Test [3] deals with HL-60(TB) leukemia.
Test [4] concerns NCI-H226 lung.
In test [5] the test system is UACC-62 melanoma.
Test [6] has as its system LOX IMVI melanoma.
The subject of test [7] is SNB-75 CNS.
Test [8] has as its system NCI/ADR-RES ovarian.
In test [9] the test system is RXF 393 renal.

Consider `COc1cc(C(C)O)c[n+](CCC2CNc3ccccc32)c1` (stereo not drawn), for which the TGI in [1], in test [2], in test [3], in test [4], in test [5] and in test [6] was greater than 100 µM in each case. Moreover, the TGI in [7] was greater than 100 µM.

Turning to `COc1ccc(C(=O)c2sc3nc(-c4cccs4)ccc3c2N)cc1OC`, the GI50 in test [8] is 3.61 µM; in test [2], 5.06 µM; in test [3] it was 4.14 µM; in [4] it was 17.9 µM; in [9], 9.98 µM; in [5], 6.47 µM. The GI50 in test [6] was 6.73 µM; in [7] it was 4.06 µM. Also, the TGI in test [8], in [2], in test [3], in test [4], in test [9] and in test [5] was greater than 100 µM throughout. In addition, the TGI in [6] and in test [7] was greater than 100 µM each time.

On to `CC(=O)c1ccc(NC(=O)C(=O)C(C#N)CC(C)(C)C=O)cc1` (stereo not drawn), for which the TGI in test [1], in test [2], in [3], in test [4], in test [5] and in test [6] was greater than 100 µM throughout.

For the molecule `COc1ccc(NC(=O)CC(=O)n2nc(C)c(N=Nc3ccccc3C(=O)O)c2C)cc1`, the TGI is greater than 100 µM in test [1]; greater than 100 µM in [2]; greater than 100 µM in test [3]; greater than 100 µM in test [5]; greater than 100 µM in test [6]; 78.8 µM in test [7].

With `C=C(C(=C)P(=S)(C(C)C)C(C)C)P(=S)(C(C)C)C(C)C`, the TGI in test [1], in test [2], in test [3], in test [4], in test [9] and in test [5] was greater than 100 µM in each case. Also, the TGI in test [6] and in [7] was greater than 100 µM throughout.

In the case of `Cc1c2c(c(C)c3c1[nH]c1ccccc13)CN(C)CC2`, the TGI in [1] is 56.3 µM; in [2], 29.4 µM; in test [3], greater than 100 µM; in test [4], 56.5 µM; in [9], 34.6 µM; in test [5] it was 31.9 µM. For the same molecule, the figures for the TGI in test [6] and in test [7] were 29.3 µM and 28.8 µM, respectively.

On to `OCCN(CCO)c1cccc(N(CCO)CCO)n1`, for which the TGI in test [2], in test [3], in [9], in test [5], in test [6] and in test [7] was greater than 100 µM in each case.

With `c1ccc(OCc2nnc3n2N=C(c2ccccc2)CS3)cc1`, the TGI in [1], in [2], in test [3], in test [4], in test [9] and in [5] was greater than 100 µM in each case. The TGI in test [6] was greater than 100 µM; in test [7], 95.1 µM.

With `CC(=O)c1ccc(NC(=O)COC(=O)c2cccc3c(=O)c4ccccc4[nH]c23)cc1`, the TGI is greater than 100 µM in test [1]; 42.8 µM in [2]; greater than 100 µM in test [3]; 46.2 µM in [4]; greater than 100 µM in [9]; greater than 100 µM in [5]. Further, the figures for the TGI in [6] and in test [7] were 51.5 µM and 31.5 µM, respectively.

As to `COc1cccc(SSc2cccc(OC)c2C(=O)O)c1C(=O)O`, the TGI in test [1], in test [2], in test [3], in test [4], in test [9] and in [5] was greater than 100 µM in each case. The TGI in test [6] and in test [7] was greater than 100 µM throughout.

Regarding `Cc1ccc(NC(=O)CCc2n[nH]c(=S)o2)cc1`, the TGI in test [1], in test [2], in [3], in [4], in test [9] and in [5] was greater than 100 µM each time. Moreover, the TGI in [6] and in test [7] was greater than 100 µM throughout.

As for `O=c1c2cc3c(cc2c2cccc4c2n1CCC4)OCO3`, the TGI in test [1] is greater than 100 µM; in test [2] it was 71.1 µM; in test [3], greater than 100 µM; in [4], greater than 100 µM; in test [9] it was 92.2 µM; in [5], greater than 100 µM. For the same molecule, the TGI in test [6] and in test [7] was greater than 100 µM in each case.

Take `COc1cc2ccnc3c(=C(SC)SC)c(=O)c(c1OC)c23`: the TGI was found to be 5.04 µM in [3]; 26.6 µM in test [9]; 37.9 µM in [5]; 10.7 µM in [6]; 21.8 µM in test [7].

`CN(CCCCCl)P(=O)(OCc1ccc([N+](=O)[O-])o1)OCC1OC(n2cnc([N+](=O)[O-])c2N)C(O)C1O` (stereo not drawn): the GI50 in [8], in test [1], in test [2], in [3], in [4] and in test [9] was greater than 100 µM each time. The GI50 in test [5], in test [6] and in test [7] was greater than 100 µM in each case. Also, the TGI in test [8], in test [1], in [2], in test [3], in [4] and in test [9] was greater than 100 µM each time. For the same molecule, the TGI in [5], in test [6] and in test [7] was greater than 100 µM in each case.

For `N#CC1=C(O)NC(O)=C(C#N)C1c1ccc(C2C(C#N)=C(O)NC(O)=C2C#N)cc1`, the TGI was greater than 100 µM in test [1]; greater than 100 µM in test [2]; 75.3 µM in test [3]; greater than 100 µM in test [4]; greater than 100 µM in test [9]; greater than 100 µM in test [5]. Also, the TGI in test [6] and in test [7] was greater than 100 µM each time.
